Test results published in patent US10053725B2, “In situ interaction determination” (President and Fellows of Harvard College, priority 2013, dated 2018).
Where no end group is shown, it is not given here.

Tests used:
[1] = molecular target: T1, streptavidin (SA) (Streptomyces avidinii, UniProt P22629); test: Antibody-mediated ISID with DNA-αSA and streptavidin (qPCR, mock-library enrichment); assay type: binding
Experimental: (§1) In cases where recombinant SA or CAII was added to HeLa lysate at 0.01% wt, the protein content of the HeLa cell lysate was first estimated using the Modified Lowry Assay Kit (Thermo Scientific). HeLa cell lysate replaced water in the primer extension reaction mixture, and was added in volumes of 5.7-8.5 μL, with a maximum weight of 60 μg total protein added.

[2] = molecular target: T1, streptavidin (SA); conditions: read-out: SA-iminobiotin Kd; cited from earlier work
[3] = molecular target: T2, SNAP-Bcl-xL or Bcl-xL-SNAP (Homo sapiens, UniProt Q07817); test: ISID in 293T cell lysate expressing SNAP-tagged Bcl-xL; assay type: binding; conditions: mixtures of DNA-Bak/DNA-BakL78A/DNA-biotin
T2 construct: His6-Bcl-xL (truncated C-terminus, amino acids 1 to 212); expressed in transfected cells; host or cells: HEK-293T (lysate)
T2 sequence (Q07817 1-212): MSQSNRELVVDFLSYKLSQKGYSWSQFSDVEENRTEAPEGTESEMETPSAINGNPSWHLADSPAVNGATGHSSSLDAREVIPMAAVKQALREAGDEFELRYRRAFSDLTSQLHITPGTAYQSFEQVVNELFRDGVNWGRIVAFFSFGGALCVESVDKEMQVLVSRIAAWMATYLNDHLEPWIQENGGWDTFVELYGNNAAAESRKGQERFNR

[4] = molecular target: Bcl-xL (Homo sapiens, UniProt Q07817); conditions: cited from earlier work
Sequence of Bcl-xL (Q07817 whole entry, species assumed): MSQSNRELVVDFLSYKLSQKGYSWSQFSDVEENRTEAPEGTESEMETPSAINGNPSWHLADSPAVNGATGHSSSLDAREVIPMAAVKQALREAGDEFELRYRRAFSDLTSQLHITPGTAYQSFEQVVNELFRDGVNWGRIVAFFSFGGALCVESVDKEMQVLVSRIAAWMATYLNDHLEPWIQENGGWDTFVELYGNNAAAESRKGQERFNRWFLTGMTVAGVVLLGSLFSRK

[5] = molecular target: T3, His6-Bcl-xL (Homo sapiens, UniProt Q07817); test: ISID with DNA-αHis and His6-tagged Bcl-xL; assay type: binding
T3 construct: His6-Bcl-xL (truncated C-terminus, amino acids 1 to 212); expressed in transfected cells; host or cells: HEK-293T (lysate)
T3 sequence (Q07817 3-212): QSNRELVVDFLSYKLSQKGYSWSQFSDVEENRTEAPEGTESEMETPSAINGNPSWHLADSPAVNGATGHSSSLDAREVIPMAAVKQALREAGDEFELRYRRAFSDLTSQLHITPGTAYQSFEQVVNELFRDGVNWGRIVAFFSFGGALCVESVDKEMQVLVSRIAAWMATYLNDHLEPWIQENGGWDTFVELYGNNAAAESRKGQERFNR

[6] = molecular target: T4, SNAP-CA (Homo sapiens, UniProt P00918); test: Model library×library ISID with SNAP-tagged targets: CAII; assay type: binding; conditions: 262 DNA-linked ligands × 259 DNA-linked targets; counts DNA-BG sample / DNA alone sample
T4 construct: expressed in transfected cells; host or cells: HEK-293T (lysate)

[7] = molecular target: T5, SNAP-CAII or CAII-SNAP (Homo sapiens, UniProt P00918, S2A); test: ISID in 293T cell lysate expressing SNAP-tagged CAII; assay type: binding; conditions: 293T lysate expressing SNAP-CAII or CAII-SNAP; mixtures with DNA-desthiobiotin
T5 construct: expressed in transfected cells; host or cells: HEK-293T (lysate)

[8] = molecular target: T6, carbonic anhydrase II (CAII) (Homo sapiens, UniProt P00918, S2A); test: Antibody-mediated ISID with DNA-αCAII and CAII in HeLa lysate; assay type: binding; conditions: T4 DNA polymerase; mock library DNA-GLCBS/DNA-desthiobiotin; 0.01% CAII in HeLa lysate
T6 construct: made in house; host or cells: E. coli BL21(DE3), pACA plasmid
Experimental: as §1

[9] = molecular target: T7, CAII-His6 (Homo sapiens, UniProt P00918); test: ISID with DNA-αHis and His6-tagged CAII; assay type: binding
T7 construct: expressed in transfected cells; host or cells: HEK-293T (lysate)

[10] = molecular target: carbonic anhydrase II (CAII) (Homo sapiens, UniProt P00918); conditions: read-out: CAII:GLCBS Kd; cited from earlier work
[11] = molecular target: T8, SNAP-Bcl-xL (UniProt Q07817-1 1-212, SNAP-tag covalently labelled with O6-benzylguanine-linked DNA (DNA-BG)); test: model library x library ISID, pooled 293T lysates expressing SNAP-target fusions; sequence counts with DNA-BG divided by counts with DNA alone
T8 construct: also called N-terminally SNAP-tagged Bcl-xL; not shown: SNAP-tag from the pSNAPf vector (New England Biolabs)
T8 sequence (Q07817 1-212): as the sequence (Q07817 1-212) above

[12] = molecular target: T9, His6-Bcl-xL (truncated C-terminus, amino acids 1 to 212) (UniProt Q07817 1-212); test: ISID with DNA-αHis in lysate of 293T cells expressing His6-Bcl-xL, mock library, restriction digest and PAGE
T9 construct: range 1-212
T9 sequence (Q07817 other isoform, or with tags, fused parts or gaps): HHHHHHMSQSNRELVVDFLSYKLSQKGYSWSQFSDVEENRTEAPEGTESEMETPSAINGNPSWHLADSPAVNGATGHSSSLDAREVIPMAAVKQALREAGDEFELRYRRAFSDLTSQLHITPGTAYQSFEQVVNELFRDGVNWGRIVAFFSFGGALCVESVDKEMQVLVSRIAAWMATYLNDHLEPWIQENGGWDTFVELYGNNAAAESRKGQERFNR

[13] = T4 DNA polymerase, 8-nt complementary region, mock library with DNA-GLCBS, SA 0.01% wt in HeLa lysate

T1 sequence (P22629 25-183, species assumed): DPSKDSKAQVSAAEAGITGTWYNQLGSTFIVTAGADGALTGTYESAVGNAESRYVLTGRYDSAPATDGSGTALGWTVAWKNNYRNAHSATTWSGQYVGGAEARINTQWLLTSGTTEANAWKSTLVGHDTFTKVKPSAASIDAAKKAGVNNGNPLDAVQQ

O=C(O)CCCC[C@@H]1SC[C@@H]2NC(=O)N[C@@H]21 [biotin]
enrichment of sequence ([1]; Klenow exo−, mixtures DNA-biotin/DNA-GLCBS, SA 0.01% wt in HeLa cell lysate): ~10 fold
enrichment of sequence [1, 13]: ~1,000 fold
improvement in enrichment ([1]; T4 DNA polymerase/8-nt vs Klenow exo−/6-nt complementary region): 100 fold

C[C@@H]1NC(=O)N[C@@H]1CCCCCC(=O)O [desthiobiotin]
ΔCT ([1]; DNA-αSA, 0.01% SA in HeLa lysate, qPCR): 4.7
enrichment of sequence [1, 13]: ~1000 fold

N=C1N[C@H]2[C@H](CS[C@H]2CCCCC(=O)O)N1 [iminobiotin]
Kd [2]: 13 µM

BakL78A: BakL78A (72-87) peptide, a weakly binding mutant of the Bak peptide (GQVGRQAAIIGDDINR; not fully specified)
enrichment of sequence [3]: no enrichment
Kd [4]: 270 µM

DNA-Bad: DNA oligonucleotide linked to Bad BH3 peptide
ΔCT ([5]; 293T cell lysate expressing His6-BclxL, vs DNA-GLCBS or DNA-biotin): 8
ΔCT ([5]; recombinant His6-Bcl-xL): 3 cycles

Gly-Leu-CBS [GLCBS]
enrichment factor [6]: 178.3
enrichment of sequence [7]: ~100 fold
enrichment of sequence [8]: 10 fold
enrichment of sequence ([9]; 293T cell lysate expressing CAII-His6, undiluted, mock library): ~10 fold
enrichment of sequence ([9]; transfected lysate diluted 1:10 into untransfected 293T lysate): ~100 fold
enrichment of sequence ([9]; transfected lysate diluted 1:100 into untransfected lysate, approximating 3 nM CAII-His6): ~10 fold
Kd [10]: 0.04 µM

B1: Bad BH3 peptide (103-127) (peptide, UniProt Q92934 103-127, looked up)
peptide: NLWAAQRYGRELRRMSDEFVDSFKK
modifications: also: conjugated to 3'-thiol DNA via SM(PEG)2 crosslinker, attachment site not given here
notes: range 103-127; Used as a peptide-DNA conjugate in ISID; also called DNA-Bad; 3h-Bad
enrichment factor [11]: 238
enrichment [12]: ~100 fold

B2: BakL78A (72-87) peptide (peptide, UniProt Q16611 72-87, looked up)
peptide: GQVGRQAAIIGDDINR
modifications: also: conjugated to 3'-thiol-modified DNA via SM(PEG)2 crosslinker, site not given here
notes: range 72-87; also called DNA-BakL78A; 3i-BakL78A
enrichment factor [11]: 3.9
